The structures appear in SMILES notation. ≈ marks a conversion by molar mass, not a printed value.

The target of data set [1] is terminal deoxynucleotidyl transferase (Homo sapiens, UniProt P04053). Conditions: Ono et al., 1982; cited from earlier work.
Another data set relates to 251L. Put plainly: monolayer proliferation assay (modified propidium iodide assay), 251L. Format: cell-based, human. Conditions: 4 days exposure, median of duplicate experiments. The method, then:
(§1) In vitro evaluation of compounds for anticancer activity in a panel of 38 human tumour cell lines in a monolayer proliferation assay was carried out at the Oncotest Testing Facility, Institute for Experimental Oncology, Oncotest GmbH, Freiburg.
(§2) The Oncotest cell lines are established from human tumor xenografts as described by Roth et al., (1999). The origin of the donor xenografts was described by Fiebig et al., (1999). Other cell lines are either obtained from the NCl (H460, SF-268, OVCAR-3, DU145, MDA-MB-231, MDA-MB-468) or purchased from DSMZ, Braunschweig, Germany (LNCAP).
(§3) All cell lines, unless otherwise specified, were grown at 37° C. in a humidified atmosphere (95% air, 5% CO2) in a ‘ready-mix’ medium containing RPMI 1640 medium, 10% fetal calf serum, and 0.1 mg/mL gentamicin (PAA, Cölbe, Germany).
(§4) A modified propidium iodide assay was used to assess the effects of the test compound(s) on the growth of human tumour cell lines (Dengler et al., (1995)).
(§5) Briefly, cells were harvested from exponential phase cultures by trypsinization, counted and plated in 96 well flat-bottomed microtitre plates at a cell density dependent on the cell line (5-10.000 viable cells/well). After 24 h recovery to allow the cells to resume exponential growth, 0.010 mL of culture medium (6 control wells per plate) or culture medium containing a 21-deoxymacbecin analogue was added to the wells. Each concentration was plated in triplicate. […] Following 4 days of continuous exposure, cell culture medium with or without test compound was replaced by 0.2 mL of an aqueous propidium iodide (PI) solution (7 mg/L). To measure the proportion of living cells, cells were permeabilized by freezing the plates. After thawing the plates, fluorescence was measured using the Cytofluor 4000 microplate reader (excitation 530 nm, emission 620 nm), giving a direct relationship to the total number of viable cells.
(§6) Growth inhibition was expressed as treated/control×100 (% T/C). For active compounds, IC70 values were estimated by plotting compound concentration versus cell viability.
(§7) In vitro evaluation of the test compounds for anticancer activity in a panel of human tumour cell lines in a monolayer proliferation assay was carried out as described in the general methods using a modified propidium iodide assay.

Another data set concerns MCF7. Put plainly: monolayer proliferation assay (modified propidium iodide assay), MCF7. Type of data set: cell-based, human. Conditions: 4 days exposure, median of duplicate experiments. The method, then: as §1, §2, §3, §4, §5, §6, §7
The next data set has as its system 1138L. Briefly: monolayer proliferation assay (modified propidium iodide assay), 1138L. Format: cell-based, human. The settings on record: 4 days exposure, median of duplicate experiments. The method, then: as §1, §2, §3, §4, §5, §6, §7
The subject of another data set is DU145. Briefly: monolayer proliferation assay (modified propidium iodide assay), DU145. Conditions: 4 days exposure, median of duplicate experiments. Format: cell-based, human. The method, then: as §1, §2, §3, §4, §5, §6, §7
Another data set concerns LNCAP. Put plainly: monolayer proliferation assay (modified propidium iodide assay), LNCAP. Type of data set: cell-based, human. Conditions: 4 days exposure, median of duplicate experiments. The method, then:
as §1, §2, §3, §4, §5, §6, §7

A further data set deals with H460. Briefly: monolayer proliferation assay (modified propidium iodide assay), H460. Format: cell-based, human. The settings on record: 4 days exposure, median of duplicate experiments. As for the experimental part: as §1, §2, §3, §4, §5, §6, §7
A further data set is described as follows: Solubility assay. Format: physicochemical. The settings on record: aqueous buffer, kinetic from dmso stock; 2% DMSO in PBS pH 7.3; shaken up to six hours; maximum measurable 0.5 mM. As for the experimental part: Solutions (25 mM) of the test compounds were prepared by dissolving 3-5 mg aliquots in the appropriate amount of DMSO.
Aliquots (0.01 mL) were added to 0.490 mL of pH 7.3 PBS in glass vials. For each time point, 3 PBS vials were prepared in amber glass vials. For the six hour time point triplicate aliquots in DMSO were also prepared.
The resulting 0.5 mM solutions were shaken for up to six hours, with vials removed for analysis at 1, 3 and 6 hours. Samples were analysed by HPLC (0.025 mL injections).
Solubility in 2% DMSO in PBS at each time point was determined by comparing total peak areas for each chromatogram with mean total peak area for chromatograms produced from the corresponding 6 hour DMSO solutions. (Mean total peak area in DMSO solutions was assumed to be equivalent to a 0.5 mM solution).

The target in a further data set is Yeast Hsp90 (Saccharomyces cerevisiae, UniProt P02829). Put plainly: Hsp90 binding, isothermal titration calorimetry. As for the experimental part: Yeast Hsp90 was dialysed against 20 mM Tris pH 7.5 containing 1 mM EDTA and 5 mM NaCl and then diluted to 0.008 mM in the same buffer, but containing 2% DMSO. The test compounds were dissolved in 100% DMSO at a concentration of 50 mM and subsequently diluted to 0.1 mM in the same buffer as for Hsp90 with 2% DMSO. Heats of interaction were measured at 30° C. on a MSC system (Microcal), with a cell volume of 1.458 mL. 10 aliquots of 0.027 mL of 0.100 mM of each test compound were injected into 0.008 mM yeast Hsp90. Heats of dilution were determined in a separate experiment by injecting the test compound into buffer containing 2% DMSO, and the corrected data fitted using a nonlinear least square curve-fitting algorithm (Microcal Origin) with three floating variables: stoichiometry, binding constant and change in enthalpy of interaction.
Chain of Yeast Hsp90 (P02829 whole entry): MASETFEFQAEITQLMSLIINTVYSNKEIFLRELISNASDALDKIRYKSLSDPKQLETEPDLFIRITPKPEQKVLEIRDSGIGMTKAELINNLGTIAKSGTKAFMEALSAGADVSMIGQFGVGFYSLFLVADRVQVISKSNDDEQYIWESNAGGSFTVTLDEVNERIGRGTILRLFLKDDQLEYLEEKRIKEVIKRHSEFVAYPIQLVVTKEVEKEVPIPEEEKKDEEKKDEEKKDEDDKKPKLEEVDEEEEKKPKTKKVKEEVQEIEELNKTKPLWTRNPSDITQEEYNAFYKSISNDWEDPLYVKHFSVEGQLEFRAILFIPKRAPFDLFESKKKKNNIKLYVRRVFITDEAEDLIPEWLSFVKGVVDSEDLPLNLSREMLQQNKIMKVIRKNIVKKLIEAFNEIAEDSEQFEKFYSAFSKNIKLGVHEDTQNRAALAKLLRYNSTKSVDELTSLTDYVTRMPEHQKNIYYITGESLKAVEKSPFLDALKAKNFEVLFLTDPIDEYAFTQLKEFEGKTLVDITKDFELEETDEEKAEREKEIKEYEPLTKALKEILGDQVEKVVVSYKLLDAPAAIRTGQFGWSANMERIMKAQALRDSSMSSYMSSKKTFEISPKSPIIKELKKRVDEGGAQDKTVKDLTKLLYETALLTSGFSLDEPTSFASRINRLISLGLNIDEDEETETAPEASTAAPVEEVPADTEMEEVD

The test system of another data set is 394NL. Briefly: monolayer proliferation assay (modified propidium iodide assay), 394NL. Conditions: 4 days exposure, median of duplicate experiments. Type of data set: cell-based, human. As for the experimental part:
as §1, §2, §3, §4, §5, §6, §7

In a further data set the test system is OVCAR3. Briefly: monolayer proliferation assay (modified propidium iodide assay), OVCAR3. Type of data set: cell-based, human. Conditions: 4 days exposure, median of duplicate experiments. As for the experimental part: as §1, §2, §3, §4, §5, §6, §7
The next data set has as its system Reverse transcriptase. Conditions: Ono et al., 1982; cited from earlier work.
For a further data set, the system named is SF268. Briefly: monolayer proliferation assay (modified propidium iodide assay), SF268. Type of data set: cell-based, human. The settings on record: 4 days exposure, median of duplicate experiments. The method, then: as §1, §2, §3, §4, §5, §6, §7

Chain of terminal deoxynucleotidyl transferase (P04053 whole entry, species assumed): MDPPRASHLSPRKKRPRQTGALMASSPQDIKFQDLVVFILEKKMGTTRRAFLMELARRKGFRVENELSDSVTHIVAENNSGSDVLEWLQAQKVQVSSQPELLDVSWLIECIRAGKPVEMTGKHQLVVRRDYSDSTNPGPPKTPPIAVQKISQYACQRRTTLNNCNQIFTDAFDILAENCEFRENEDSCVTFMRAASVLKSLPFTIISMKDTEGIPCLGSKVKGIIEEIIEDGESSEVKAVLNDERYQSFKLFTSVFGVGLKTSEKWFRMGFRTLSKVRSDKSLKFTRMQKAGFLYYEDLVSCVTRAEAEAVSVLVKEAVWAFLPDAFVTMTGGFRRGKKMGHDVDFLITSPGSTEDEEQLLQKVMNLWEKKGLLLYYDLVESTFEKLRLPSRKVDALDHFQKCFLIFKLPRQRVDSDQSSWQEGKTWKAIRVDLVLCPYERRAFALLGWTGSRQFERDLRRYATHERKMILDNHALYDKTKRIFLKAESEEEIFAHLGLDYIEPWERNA

With `CO[C@H]1[C@@H](OC)C[C@H](C)[C@@H](OC)C2=CC(=O)C=C(NC(=O)/C(C)=C/C=C\[C@H](C)[C@@H](OC(N)=O)/C(C)=C/[C@@H]1C)C2=O` [macbecin], in [1], the “terminal deoxynucleotidyl transferase activity inhibition” value is on record as “not inhibited”. Moreover, the “Test/Control (%) at drug concentration” value came out at 58% in the data set with 251L (1 μg/mL); 44% in the data set with 251L (10 μg/mL); 42% in the data set on MCF7 (1 μg/mL); 19% in the data set on MCF7 (10 μg/mL); 71% with 1138L (1 μg/mL); 31% with 1138L (10 μg/mL). Besides, the “Test/Control (%) at drug concentration” value with DU145 (1 μg/mL) is given as 13%; with DU145 (10 μg/mL), 5%; with LNCAP (1 μg/mL) it was 34%; in the data set on LNCAP (10 μg/mL) it was 32%; in the data set with H460 (1 μg/mL), 62%; in the data set with H460 (10 μg/mL), 25%. Also, the “Test/Control (%) at drug concentration” value in the data set with 394NL (1 μg/mL) worked out at 16%; with 394NL (10 μg/mL), 13%; with OVCAR3 (1 μg/mL), 54%; with OVCAR3 (10 μg/mL), 11%; in the data set with SF268 (1 μg/mL), 40%; in the data set on SF268 (10 μg/mL) it was 6%. The solubility in “Solubility assay” was found to be 81 µM (≈ 45.3 µg/mL). In addition, the Kd at Yeast Hsp90 worked out at 240 nM. The “Reverse transcriptase activity inhibition” value with Reverse transcriptase is reported as “not inhibited”.

Source of the values: patent publication US20090209494A1, “21-DEOXYMACBECIN ANALOGUES USEFUL AS ANTITUMOR AGENTS” (priority 2005, published 2009).
